The values below come from PubChem BioAssay (NCI).

Test systems include SK-MEL-2 melanoma; OVCAR-8 ovarian; NCI-H522 lung; HT29 colon; SNB-75 CNS; SF-539 CNS; EKVX NSCLC; M14 melanoma; IGROV1 ovarian.
Holding throughout (test): inhibition of tumour cell growth, NCI panel, 48 h

The structures appear in SMILES notation.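 Exposure lasted 48 hours, with cells grown in 96-well plates and compounds tested at five concentrations. At the GI50, growth is halved. TGI marks complete inhibition of growth.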

Consider `COc1ccc(-c2cc(C(=O)Nc3cccc(C(F)(F)F)c3)[nH]c(=S)n2)cc1`, for which the TGI in the assay on SK-MEL-2 melanoma, in the assay on OVCAR-8 ovarian, with NCI-H522 lung, with HT29 colon, in the assay on SNB-75 CNS and in the assay on SF-539 CNS was more than 100 µM each time. The TGI in the assay on EKVX NSCLC, with M14 melanoma and with IGROV1 ovarian was more than 100 µM in each case.

With `Cc1c(/C=C2\CC/C(=C\c3[nH]c(C(=O)OC(C)(C)C)c(C)c3C)C2=O)[nH]c(C(=O)OC(C)(C)C)c1C`, the TGI in the assay with SK-MEL-2 melanoma, in the assay on OVCAR-8 ovarian, in the assay with NCI-H522 lung, in the assay on HT29 colon, in the assay on SNB-75 CNS and in the assay on SF-539 CNS was more than 100 µM each time. Moreover, the TGI in the assay with EKVX NSCLC, in the assay on M14 melanoma and with IGROV1 ovarian was more than 100 µM in each case.

For the compound `O=c1/c(=C/c2cccc3ccccc23)sc2nc3ccccc3n12`, the TGI in the assay on SK-MEL-2 melanoma, in the assay on OVCAR-8 ovarian, with NCI-H522 lung, in the assay on HT29 colon, in the assay with SNB-75 CNS and with SF-539 CNS was more than 100 µM in each case. In addition, the TGI with EKVX NSCLC, in the assay on M14 melanoma and with IGROV1 ovarian was more than 100 µM each time.

As to `COc1cc(OC)cc(N2CCC(c3c(N)nc(N)nc3Cl)CC2)c1`, the TGI in the assay with SK-MEL-2 melanoma, with OVCAR-8 ovarian, in the assay with NCI-H522 lung, in the assay with SNB-75 CNS, in the assay on EKVX NSCLC and in the assay with M14 melanoma was more than 100 µM throughout. This compound displayed a TGI in the assay on IGROV1 ovarian of more than 100 µM.

Take `COc1cc(-c2c3c(cn2S(=O)(=O)c2ccccc2)-c2nc(N)sc2CC3)cc(OC)c1OC`: the GI50 in the assay with SK-MEL-2 melanoma was 0.596 µM; in the assay with OVCAR-8 ovarian, 2.4 µM; in the assay with NCI-H522 lung, 0.349 µM; with HT29 colon it was 0.384 µM; in the assay with SNB-75 CNS, 0.222 µM; in the assay on SF-539 CNS, 0.548 µM. Also, the GI50 is 0.612 µM with M14 melanoma and 2.23 µM in the assay with IGROV1 ovarian. For the same compound, the TGI in the assay with SK-MEL-2 melanoma stood at 12.7 µM; with OVCAR-8 ovarian it was 29.2 µM; in the assay on NCI-H522 lung it was 6.83 µM; with HT29 colon, 3.44 µM; in the assay with SNB-75 CNS, 1.1 µM; in the assay with SF-539 CNS, 5.07 µM. The TGI in the assay with M14 melanoma was more than 100 µM; with IGROV1 ovarian, 75.1 µM.

For the compound `COc1nc(OC)c2c(=O)oc(-c3ccccc3)cc2n1`, the TGI in the assay with SK-MEL-2 melanoma, in the assay with OVCAR-8 ovarian, in the assay with NCI-H522 lung, in the assay on HT29 colon, with SNB-75 CNS and in the assay on SF-539 CNS was more than 100 µM each time. In addition, the TGI with EKVX NSCLC and in the assay with IGROV1 ovarian was more than 100 µM throughout.

On to `CS(=O)(=O)C1S(=O)(=O)OCCOS1(=O)=O`, for which the TGI in the assay with OVCAR-8 ovarian, in the assay with NCI-H522 lung, in the assay on HT29 colon, with SNB-75 CNS, in the assay with SF-539 CNS and in the assay with EKVX NSCLC was more than 100 µM each time. The TGI with M14 melanoma and in the assay on IGROV1 ovarian was more than 100 µM in each case.

For `O=c1cc2n(c(=O)[nH]1)C1OC(C(O)C1O)[C@@H]2CCO` (some centres not stated), the TGI in the assay with SK-MEL-2 melanoma, with OVCAR-8 ovarian, in the assay on NCI-H522 lung, with HT29 colon, in the assay on SF-539 CNS and in the assay on EKVX NSCLC was more than 100 µM throughout. The TGI in the assay with M14 melanoma and in the assay on IGROV1 ovarian was more than 100 µM each time.

With `COC(=O)c1cnc2nc(N3CCOCC3)[nH]n2c1=O`, the TGI with SK-MEL-2 melanoma, with OVCAR-8 ovarian, with NCI-H522 lung, in the assay with HT29 colon, in the assay with SNB-75 CNS and in the assay with SF-539 CNS was more than 100 µM in each case. Further, the TGI with EKVX NSCLC, in the assay with M14 melanoma and in the assay with IGROV1 ovarian was more than 100 µM throughout.

On to `CCc1nc2c(O)ccc(O)c2nc1C`, for which the TGI in the assay on SK-MEL-2 melanoma amounted to 32.2 µM; with OVCAR-8 ovarian, 23.8 µM; with NCI-H522 lung, 6.47 µM; in the assay on HT29 colon it was 34.9 µM; with SNB-75 CNS, 37.6 µM; in the assay on SF-539 CNS, 31.4 µM. Further, the values for the TGI in the assay with EKVX NSCLC, in the assay on M14 melanoma and in the assay with IGROV1 ovarian were 31.1 µM, 28.3 µM and 33.1 µM, respectively.

Turning to `CCOC(C)OCC#CCCBr` (configuration not stated), the TGI in the assay on SK-MEL-2 melanoma, with OVCAR-8 ovarian, with HT29 colon, in the assay with SNB-75 CNS, in the assay with SF-539 CNS and with EKVX NSCLC was more than 100 µM each time. Moreover, the TGI in the assay on M14 melanoma and in the assay on IGROV1 ovarian was more than 100 µM each time.

With `CC(C)(C)c1nc2c(o1)C(=Nc1ccccc1)c1ccccc1C2=O`, the TGI in the assay with SK-MEL-2 melanoma turned out to be 6.99 µM; with OVCAR-8 ovarian it was 26.2 µM; in the assay with NCI-H522 lung it was 10.2 µM; in the assay on HT29 colon it was 57.8 µM; in the assay on SNB-75 CNS, 13.6 µM; with SF-539 CNS, 8.5 µM. In addition, the TGI in the assay with EKVX NSCLC was found to be 41 µM; with M14 melanoma it was 6.1 µM; with IGROV1 ovarian, 33.6 µM.

Consider `N#C/C(=C\c1ccc(CP(=O)(O)O)cc1)C(N)=O`, for which the TGI with SK-MEL-2 melanoma, in the assay on OVCAR-8 ovarian, with NCI-H522 lung, in the assay on HT29 colon, in the assay on SF-539 CNS and in the assay on EKVX NSCLC was more than 100 µM throughout. Also, the TGI with M14 melanoma and with IGROV1 ovarian was more than 100 µM throughout.

For the compound `CC(=O)[CH-]C(=O)c1ccccc1.CC(=O)[CH-]C(=O)c1ccccc1.[Nd+3].[OH-].[OH3+]`, the GI50 was more than 100 µM in the assay on SK-MEL-2 melanoma; more than 100 µM in the assay on OVCAR-8 ovarian; more than 100 µM with NCI-H522 lung; more than 100 µM with HT29 colon; 60.5 µM with SNB-75 CNS; more than 100 µM with SF-539 CNS. Also, the GI50 in the assay on M14 melanoma and in the assay on IGROV1 ovarian was more than 100 µM in each case. Further, the TGI with SK-MEL-2 melanoma, in the assay with OVCAR-8 ovarian, in the assay on NCI-H522 lung, with HT29 colon, in the assay with SNB-75 CNS and with SF-539 CNS was more than 100 µM each time. Further, the TGI in the assay on M14 melanoma and in the assay with IGROV1 ovarian was more than 100 µM each time.

On to `O=C(Cc1ccccc1)Oc1ccc2c(-c3ccccc3)c(C(=O)Nc3ccc(Cl)cc3)c(=O)oc2c1`, for which the TGI with OVCAR-8 ovarian, in the assay on NCI-H522 lung, in the assay on HT29 colon, in the assay with SNB-75 CNS, in the assay on SF-539 CNS and with EKVX NSCLC was more than 100 µM throughout. For the same compound, the TGI with M14 melanoma and in the assay with IGROV1 ovarian was more than 100 µM each time.

In the case of `CC(NC(=O)c1ccccc1)C(=O)N(Cc1ccccc1)Cc1ccccc1` (configuration not stated), the TGI with SK-MEL-2 melanoma is 56.3 µM; in the assay with NCI-H522 lung, 65.2 µM; with HT29 colon, more than 100 µM; in the assay with SNB-75 CNS it was more than 100 µM; with SF-539 CNS, more than 100 µM; in the assay with M14 melanoma it was 39.1 µM. In addition, the TGI in the assay with IGROV1 ovarian was more than 100 µM.

Regarding `CC(=O)O[C@]1(C(C)=O)CC[C@H]2[C@@H]3C[C@H](C)C4=CC(=O)C=C[C@]4(C)[C@@]3(F)[C@@H](O)C[C@@]21C`, the TGI in the assay on NCI-H522 lung, in the assay on HT29 colon, with SNB-75 CNS, in the assay with SF-539 CNS, with EKVX NSCLC and in the assay with M14 melanoma was more than 100 µM in each case. The TGI in the assay on IGROV1 ovarian was more than 100 µM.

`O=[N+]([O-])c1ccccc1S(=O)c1ccccc1` (configuration not stated): the TGI in the assay with SK-MEL-2 melanoma is more than 100 µM; with OVCAR-8 ovarian, more than 100 µM; in the assay with NCI-H522 lung it was more than 100 µM; with HT29 colon, more than 100 µM; in the assay with SNB-75 CNS, 58.7 µM; in the assay with SF-539 CNS it was more than 100 µM. In addition, the TGI in the assay with M14 melanoma and in the assay on IGROV1 ovarian was more than 100 µM throughout.

On to `Nc1nc2ncn(CCO)c2c(=O)[nH]1`, for which the TGI in the assay on SK-MEL-2 melanoma, in the assay on OVCAR-8 ovarian, in the assay with HT29 colon, in the assay on SNB-75 CNS, in the assay on SF-539 CNS and with EKVX NSCLC was more than 100 µM throughout.

Regarding `COc1cc2c(-c3nc4cc(Cl)c(F)cc4s3)cc(=O)oc2c(C)c1OC`, the GI50 with SK-MEL-2 melanoma is 2.07 µM; in the assay on OVCAR-8 ovarian, 1.5 µM; in the assay on NCI-H522 lung, 0.176 µM; with SNB-75 CNS, 0.62 µM; in the assay with SF-539 CNS, 0.183 µM; in the assay on IGROV1 ovarian, 0.207 µM. The TGI in the assay on SK-MEL-2 melanoma amounted to 3.9 µM; in the assay with OVCAR-8 ovarian, 3.47 µM; in the assay with NCI-H522 lung, 0.354 µM; in the assay on SNB-75 CNS, 1.92 µM; in the assay with SF-539 CNS, 0.379 µM; in the assay with IGROV1 ovarian it was 0.662 µM.

Regarding `CN(C)CCC1(C2=CCCC2)CC/C(=C\c2ccc3c(c2)OCO3)C1=O` (configuration not stated), the TGI stood at 31.6 µM in the assay on SK-MEL-2 melanoma; 29 µM in the assay with OVCAR-8 ovarian; 25.2 µM in the assay with HT29 colon; 30.2 µM in the assay on SF-539 CNS; 29.3 µM in the assay on EKVX NSCLC; 28.3 µM in the assay on M14 melanoma.
